From patent publication US11028074B2, “CD73 inhibitors” (Eli Lilly and Company, priority 2018, dated 2021)

How the values were obtained:
human CD73 [1] = biological target: T1, human CD73 (Homo sapiens, UniProt P21589); assay: Human CD73 Biochemical Assay; settings: 2 μM AMP, 50 pM CD73 protein, 30 minutes at RT
T1 construct: human CD73 (amino acids 1-547); 6-His (C); made in house; host or cells: HEK293F (transient transfection)
T1 sequence (P21589 27-547): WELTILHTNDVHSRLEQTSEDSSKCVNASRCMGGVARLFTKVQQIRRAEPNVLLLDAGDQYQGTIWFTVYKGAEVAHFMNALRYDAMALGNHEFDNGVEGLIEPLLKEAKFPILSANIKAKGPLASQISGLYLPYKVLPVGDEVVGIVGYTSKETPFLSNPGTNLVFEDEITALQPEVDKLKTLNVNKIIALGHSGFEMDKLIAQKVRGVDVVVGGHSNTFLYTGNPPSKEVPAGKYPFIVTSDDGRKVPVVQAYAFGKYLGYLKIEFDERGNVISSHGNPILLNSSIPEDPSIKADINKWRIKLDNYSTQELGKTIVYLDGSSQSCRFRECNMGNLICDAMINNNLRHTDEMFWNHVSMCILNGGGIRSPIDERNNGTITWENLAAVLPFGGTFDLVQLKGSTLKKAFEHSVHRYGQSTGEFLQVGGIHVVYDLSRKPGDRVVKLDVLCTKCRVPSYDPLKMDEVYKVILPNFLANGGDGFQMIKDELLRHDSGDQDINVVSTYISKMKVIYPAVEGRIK
Protocol: An Agilent 300 RapidFire automated extraction system (Agilent, Santa Clara, Calif.) is used with three HPLC quaternary pumps, coupled to an Sciex 6500 triple quadrupole mass spectrometer (AB Sciex, Framingham, Mass.) with an electrospray ionization (ESI) interface source.
Solvent A, used for sample loading and washing, is 50 mM ammonium formate, pH 4.0 containing 5% (v/v) ACN. Solvent B, used for sample elution, is 0.3% formic acid+2% ammonium hydroxide in 70% ACN/30% MeOH. Samples are sequentially analyzed by aspirating 10 μL onto the collection loop under vacuum directly from multiwell plates.
Equip the triple quadrupole mass spectrometer with an electrospray ionization (ESI) source and monitor analytes using selected reaction monitoring (SRM) in positive mode (M+H)+. […] Calculate area ratio values for adenosine and adenosine monophosphate using 13C5 Adenosine and 15N5 AMP as internal standards, respectively.
The purpose of this assay is to identify and characterize inhibitors of CD73 enzyme activity. […] Adenosine- and adenosine ribose-^13C5 (internal standard) levels are determined utilizing mass spectrometry as described above. Use signal ratio (adenosine peak integration/adenosine internal standard peak integration) to quantitate each reaction. […] For screening purposes, test each compound at 50 μM in 1% DMSO.

human CD73 [2] = biological target: T1, human CD73; assay: Human CD73 Mechanism Assay; assay type: biochemical; settings: varying inhibitor and AMP concentrations 0.023 to 50 μM, mixed-model fit
CD73 [3] = biological target: T2, CD73 (Homo sapiens, UniProt P21589); assay: LC/MS Based Assay for Measuring CD73 Activity in Human Serum; assay type: biochemical; parameters: from tissue; host or cells: normal human serum; settings: concentrations corrected with the fraction unbound, read-out: EC50, inhibition of CD73 activity in human serum
T2 sequence (P21589 27-549): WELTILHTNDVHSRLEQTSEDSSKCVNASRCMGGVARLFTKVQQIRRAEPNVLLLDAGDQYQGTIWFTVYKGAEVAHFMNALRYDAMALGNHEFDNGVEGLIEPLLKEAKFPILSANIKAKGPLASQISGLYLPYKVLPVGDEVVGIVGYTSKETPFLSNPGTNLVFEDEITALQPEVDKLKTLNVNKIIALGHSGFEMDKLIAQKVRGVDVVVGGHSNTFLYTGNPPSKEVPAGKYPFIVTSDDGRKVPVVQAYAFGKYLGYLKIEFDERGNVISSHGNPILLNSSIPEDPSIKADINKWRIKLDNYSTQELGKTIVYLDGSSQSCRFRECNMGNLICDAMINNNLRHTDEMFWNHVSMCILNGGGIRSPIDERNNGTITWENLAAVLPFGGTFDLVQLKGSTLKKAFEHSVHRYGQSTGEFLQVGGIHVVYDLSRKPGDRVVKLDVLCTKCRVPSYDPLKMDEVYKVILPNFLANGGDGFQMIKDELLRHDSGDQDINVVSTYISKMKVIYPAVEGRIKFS
Protocol: Fresh normal human blood is centrifuged at 1,500 g for 15 minutes at room temperature, and the upper fraction containing serum is collected. […] After incubation on ice for 60 min, […] (50 uM) is added to each well in the plate, and the plate is incubated at room temperature for 15 min. The plate is then placed on dry ice with addition of 200 uL/well of 17.3 TCA followed by shaking at 26 fps for 3 min with a plate-shaking machine (Qiagen). The plate is then centrifuged at 2940 g for 20 min at 4° C. […] After further centrifugation at 2940 g for 20 min at 4° C., 200 ul/well of the supernatant is used for analysis of ^13C10-^15N5-adenosine, ^13C10-^15N5-inosine and ^15N5-hypoxanthine by LC/MS as described above. For EC50 calculations, the concentrations of the CD73 inhibitor in the serum are corrected with the fraction unbound (%) derived from in silico models or experimentally.

CD73 [4] = biological target: T2, CD73; assay: Calu6 Human Cell Assay; assay type: cell-based; settings: Calu6 cells, 50 μM AMP premix, 60 minutes at room temperature
Protocol: The purpose of this assay is to test compounds against CD73 in a cell-based assay. […] Plates are incubated at room temperature for 60 minutes.

[5] = tested on: EG7 (lymphoma), MC38 (colon), AT-3 (breast) and B16F10 (melanoma) tumor cells; settings: syngeneic mice injected subcutaneously with EG7, MC38, AT-3 and B16F10 tumor cells; cited from earlier work

Compound | IC50 (human CD73 [1]) | mechanism of action (type of inhibition) (human CD73 [2]) | EC50 (CD73 [3]) | IC50 (CD73 [4]) | tumor growth [5]
CC[C@H]1C[C@@H]1c1cc(-c2c[nH]c(=O)[nH]c2=O)nnc1C [Example 1, 5-[5-[(1S,2S)-2-Ethylcyclopropyl]-6-methyl-pyridazin-3-yl]-1H-pyrimidine-2,4-dione] | 43 nM | uncompetitive inhibitor | 100 nM | 28 nM | 
Nc1ncnc2c1ncn2[C@@H]1O[C@H](COP(=O)(O)CP(=O)(O)O)[C@@H](O)[C@H]1O [α,β-methyleneadenosine 5′-diphosphate] |  |  |  |  | reduce tumor growth
